Measurements: patent US9328112B2, “Tetracyclic CDK9 kinase inhibitors” (AbbVie Inc., priority 2014, dated 2016)

How the values were obtained:
CDK9/Cyclin T1 = CDK9/Cyclin T1 (Homo sapiens (Human), UniProt P50750); experiment: CDK9 enzyme assay (LANCE ULight TR-FRET kinase assay); type: biochemical; settings: 1000 μM ATP, 100 nM ULight MBP, kinase reaction 1 hour
In short: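 Human CDK9/Cyclin T1 phosphorylating 100 nM ULight-MBP with 1000 μM ATP in HEPES/MgCl2 buffer, 1 h reaction. Stopped with 20 mM EDTA plus 0.5 nM Eu anti-phospho-MBP antibody, incubated 1 h, read by TR-FRET (ex 320 nm, em 615/665 nm).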

H929 cells = experiment: Cell viability assay (Cell TiterGlo); type: cell-based; settings: Homo sapiens, NCI-H929, 24 hours at 37° C., Cell TiterGlo luminescence
Protocol: The cell viability assay was performed using H929 cells. Cells were seeded in 96-well plates at 10,000 cells/well and, after overnight incubation, treated with compounds in a dose response of 3-fold dilutions from 10 μM to 0.005 μM ([…], 0.1% final DMSO concentration). After 24 hours at 37° C., cell viability was measured using Cell TiterGlo reagent (Promega) with a luminescence reader.

Sequence of CDK9/Cyclin T1 (P50750 whole entry): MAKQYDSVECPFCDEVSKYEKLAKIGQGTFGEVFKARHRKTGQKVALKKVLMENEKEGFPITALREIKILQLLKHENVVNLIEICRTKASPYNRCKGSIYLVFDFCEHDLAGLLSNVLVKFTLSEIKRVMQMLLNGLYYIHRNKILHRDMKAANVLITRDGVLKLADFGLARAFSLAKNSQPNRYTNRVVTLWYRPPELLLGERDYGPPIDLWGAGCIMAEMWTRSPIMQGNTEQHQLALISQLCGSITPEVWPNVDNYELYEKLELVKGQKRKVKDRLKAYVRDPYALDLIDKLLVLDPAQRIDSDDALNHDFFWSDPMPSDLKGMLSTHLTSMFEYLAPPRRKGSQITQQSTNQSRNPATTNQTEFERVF
Sequence of CDK9/Cyclin T1 (O60563 whole entry partner): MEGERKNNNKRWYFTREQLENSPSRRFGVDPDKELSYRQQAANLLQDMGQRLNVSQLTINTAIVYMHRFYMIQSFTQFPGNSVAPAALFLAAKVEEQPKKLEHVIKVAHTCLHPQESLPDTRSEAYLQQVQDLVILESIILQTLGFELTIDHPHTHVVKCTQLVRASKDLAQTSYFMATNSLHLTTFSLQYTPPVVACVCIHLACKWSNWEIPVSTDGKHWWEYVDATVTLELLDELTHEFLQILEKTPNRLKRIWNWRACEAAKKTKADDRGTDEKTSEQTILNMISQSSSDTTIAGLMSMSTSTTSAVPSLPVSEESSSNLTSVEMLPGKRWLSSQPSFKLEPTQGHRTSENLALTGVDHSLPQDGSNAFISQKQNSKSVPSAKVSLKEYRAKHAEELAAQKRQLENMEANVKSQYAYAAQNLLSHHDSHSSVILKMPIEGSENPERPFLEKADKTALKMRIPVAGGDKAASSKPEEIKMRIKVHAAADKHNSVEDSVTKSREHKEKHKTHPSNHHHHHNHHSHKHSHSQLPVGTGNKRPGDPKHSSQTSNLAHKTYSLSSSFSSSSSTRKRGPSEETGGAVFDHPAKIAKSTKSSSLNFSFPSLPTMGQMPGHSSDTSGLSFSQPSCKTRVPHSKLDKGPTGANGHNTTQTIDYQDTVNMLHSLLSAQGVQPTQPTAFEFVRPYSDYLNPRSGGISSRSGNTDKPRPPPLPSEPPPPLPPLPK

SMILES | IC50 (CDK9/Cyclin T1) [nM] | IC50 (H929 cells) [nM]
CN1Cc2c(C3=C[C@H]4CC[C@@H](C3)N4CC(=O)N(C)C3CC(O)C3)[nH]c3nccc(c23)-c2cc(F)ccc21 (stereo partly drawn) [Example 98, 2-[(1R,5S)-3-(10-fluoro-7-methyl-6,7-dihydro-4H-3,4,7-triazadibenzo[cd,f]azulen-5-yl)-8-azabicyclo[3.2.1]oct-2-en-8-yl]-N-(3-hydroxycyclobutyl)-N-methylacetamide] | 73 | 150
CN1Cc2c(C3=CC4CCCC(C3)N4S(C)(=O)=O)[nH]c3nccc(c23)-c2cc(F)ccc21 (stereo not drawn) [Example 99, 10-fluoro-7-methyl-5-[9-(methylsulfonyl)-9-azabicyclo[3.3.1]non-2-en-3-yl]-6,7-dihydro-4H-3,4,7-triazadibenzo[cd,f]azulene] | 400 | 2600
CNC(=O)N1C2C=C(c3[nH]c4nccc5c4c3CN(C)c3ccc(F)cc3-5)CC1CCC2 (stereo not drawn) [Example 100, 3-(10-fluoro-7-methyl-6,7-dihydro-4H-3,4,7-triazadibenzo[cd,f]azulen-5-yl)-N-methyl-9-azabicyclo[3.3.1]non-2-ene-9-carboxamide] | 83 | 1200
CN(C)C(=O)CN1C2C=C(c3[nH]c4nccc5c4c3CN(C)c3ccc(F)cc3-5)CC1CCC2 (stereo not drawn) [Example 101, 2-[3-(10-fluoro-7-methyl-6,7-dihydro-4H-3,4,7-triazadibenzo[cd,f]azulen-5-yl)-9-azabicyclo[3.3.1]non-2-en-9-yl]-N,N-dimethylacetamide] | 110 | 91
CN1Cc2c(C3=CC4CCCC(C3)N4C(=O)CC#N)[nH]c3nccc(c23)-c2cc(F)ccc21 (stereo not drawn) [Example 102, 3-[3-(10-fluoro-7-methyl-6,7-dihydro-4H-3,4,7-triazadibenzo[cd,f]azulen-5-yl)-9-azabicyclo[3.3.1]non-2-en-9-yl]-3-oxopropanenitrile] | 44 | 623
CN(CCO)C(=O)CN1C2C=C(c3[nH]c4nccc5c4c3CN(C)c3ccc(F)cc3-5)CC1CCC2 (stereo not drawn) [Example 103, 2-[3-(10-fluoro-7-methyl-6,7-dihydro-4H-3,4,7-triazadibenzo[cd,f]azulen-5-yl)-9-azabicyclo[3.3.1]non-2-en-9-yl]-N-(2-hydroxyethyl)-N-methylacetamide] | 86 | 51
CN1Cc2c(C3=CC4CCCC(C3)N4CC(=O)N3CCC[C@H]3CO)[nH]c3nccc(c23)-c2cc(F)ccc21 (stereo partly drawn) [Example 104, 2-[3-(10-fluoro-7-methyl-6,7-dihydro-4H-3,4,7-triazadibenzo[cd,f]azulen-5-yl)-9-azabicyclo[3.3.1]non-2-en-9-yl]-1-[(2S)-2-(hydroxymethyl)pyrrolidin-1-yl]ethanone] | 57 | 65
CN1Cc2c(C3=CC4CCCC(C3)N4CC(=O)N3CC(O)C3)[nH]c3nccc(c23)-c2cc(F)ccc21 (stereo not drawn) [Example 105, 2-[3-(10-fluoro-7-methyl-6,7-dihydro-4H-3,4,7-triazadibenzo[cd,f]azulen-5-yl)-9-azabicyclo[3.3.1]non-2-en-9-yl]-1-(3-hydroxyazetidin-1-yl)ethanone] | 98 | 190
CN1Cc2c(C3=CC4CCCC(C3)N4CC(=O)N(C)C3CC(O)C3)[nH]c3nccc(c23)-c2cc(F)ccc21 (stereo not drawn) [Example 106, 2-[3-(10-fluoro-7-methyl-6,7-dihydro-4H-3,4,7-triazadibenzo[cd,f]azulen-5-yl)-9-azabicyclo[3.3.1]non-2-en-9-yl]-N-(3-hydroxycyclobutyl)-N-methylacetamide] | 66 | 130
CN(CC(O)CO)C(=O)CN1C2C=C(c3[nH]c4nccc5c4c3CN(C)c3ccc(F)cc3-5)CC1CCC2 (stereo not drawn) [Example 107, N-(2,3-dihydroxypropyl)-2-[3-(10-fluoro-7-methyl-6,7-dihydro-4H-3,4,7-triazadibenzo[cd,f]azulen-5-yl)-9-azabicyclo[3.3.1]non-2-en-9-yl]-N-methylacetamide] | 110 | 110
CN1Cc2c(C3=CC4CCCC(C3)N4CC(=O)O)[nH]c3nccc(c23)-c2cc(F)ccc21 (stereo not drawn) [Example 108, [3-(10-fluoro-7-methyl-6,7-dihydro-4H-3,4,7-triazadibenzo[cd,f]azulen-5-yl)-9-azabicyclo[3.3.1]non-2-en-9-yl]acetic acid] | 110 | 1200

Other lines, results leading:

IC50 (CDK9/Cyclin T1) [nM] | IC50 (H929 cells) [nM] | SMILES
43 | 10 | CN1Cc2c(C3=CCN(CC(=O)N(C)C4CC(O)C4)CC3)[nH]c3ncc(F)c(c23)-c2cc(F)ccc21 (stereo not drawn) [Example 109, 2-[4-(1,10-difluoro-7-methyl-6,7-dihydro-4H-3,4,7-triazadibenzo[cd,f]azulen-5-yl)-3,6-dihydropyridin-1(2H)-yl]-N-(3-hydroxycyclobutyl)-N-methylacetamide]
45 | 14 | CN(CC(O)CO)C(=O)CN1CC=C(c2[nH]c3ncc(F)c4c3c2CN(C)c2ccc(F)cc2-4)CC1 (stereo not drawn) [Example 110, 2-[4-(1,10-difluoro-7-methyl-6,7-dihydro-4H-3,4,7-triazadibenzo[cd,f]azulen-5-yl)-3,6-dihydropyridin-1(2H)-yl]-N-(2,3-dihydroxypropyl)-N-methylacetamide]
1600 | 5500 | CN1Cc2c(C3=CCN(CC(=O)O)CC3(C)C)[nH]c3nccc(c23)-c2cc(F)ccc21 [Example 111, [4-(10-fluoro-7-methyl-6,7-dihydro-4H-3,4,7-triazadibenzo[cd,f]azulen-5-yl)-3,3-dimethyl-3,6-dihydropyridin-1(2H)-yl]acetic acid]
650 | 2700 | CN1Cc2c(C3=CCN(S(C)(=O)=O)CC3(C)C)[nH]c3nccc(c23)-c2cc(F)ccc21 [Example 113, 5-[3,3-dimethyl-1-(methylsulfonyl)-1,2,3,6-tetrahydropyridin-4-yl]-10-fluoro-7-methyl-6,7-dihydro-4H-3,4,7-triazadibenzo[cd,f]azulene]
870 | 3400 | CN(C)C(=O)CN1CC=C(c2[nH]c3nccc4c3c2CN(C)c2ccc(F)cc2-4)C(C)(C)C1 [Example 114, 2-[4-(10-fluoro-7-methyl-6,7-dihydro-4H-3,4,7-triazadibenzo[cd,f]azulen-5-yl)-3,3-dimethyl-3,6-dihydropyridin-1(2H)-yl]-N,N-dimethylacetamide]
950 | 2600 | CN1Cc2c(C3=CCN(CC(=O)N4CCC[C@H]4CO)CC3(C)C)[nH]c3nccc(c23)-c2cc(F)ccc21 [Example 115, 2-[4-(10-fluoro-7-methyl-6,7-dihydro-4H-3,4,7-triazadibenzo[cd,f]azulen-5-yl)-3,3-dimethyl-3,6-dihydropyridin-1(2H)-yl]-1-[(2S)-2-(hydroxymethyl)pyrrolidin-1-yl]ethanone]
890 | 1700 | CN(CCO)C(=O)CN1CC=C(c2[nH]c3nccc4c3c2CN(C)c2ccc(F)cc2-4)C(C)(C)C1 [Example 116, 2-[4-(10-fluoro-7-methyl-6,7-dihydro-4H-3,4,7-triazadibenzo[cd,f]azulen-5-yl)-3,3-dimethyl-3,6-dihydropyridin-1(2H)-yl]-N-(2-hydroxyethyl)-N-methylacetamide]
960 | 2400 | CN1Cc2c(C3=CCN(CC(=O)N4CC(O)C4)CC3(C)C)[nH]c3nccc(c23)-c2cc(F)ccc21 [Example 117, 2-[4-(10-fluoro-7-methyl-6,7-dihydro-4H-3,4,7-triazadibenzo[cd,f]azulen-5-yl)-3,3-dimethyl-3,6-dihydropyridin-1(2H)-yl]-1-(3-hydroxyazetidin-1-yl)ethanone]
1200 | 2600 | CN1Cc2c(C3=CCN(CC(=O)N(C)C4CC(O)C4)CC3(C)C)[nH]c3nccc(c23)-c2cc(F)ccc21 (stereo not drawn) [Example 118, 2-[4-(10-fluoro-7-methyl-6,7-dihydro-4H-3,4,7-triazadibenzo[cd,f]azulen-5-yl)-3,3-dimethyl-3,6-dihydropyridin-1(2H)-yl]-N-(3-hydroxycyclobutyl)-N-methylacetamide]
1300 | 2400 | CN(CC(O)CO)C(=O)CN1CC=C(c2[nH]c3nccc4c3c2CN(C)c2ccc(F)cc2-4)C(C)(C)C1 (stereo not drawn) [Example 119, N-(2,3-dihydroxypropyl)-2-[4-(10-fluoro-7-methyl-6,7-dihydro-4H-3,4,7-triazadibenzo[cd,f]azulen-5-yl)-3,3-dimethyl-3,6-dihydropyridin-1(2H)-yl]-N-methylacetamide]
480 | 2100 | CN1Cc2c(C3=CCCN(CC(=O)N4CCC[C@H]4CO)C3)[nH]c3nccc(c23)-c2cc(F)ccc21 [Example 120, 2-[5-(10-fluoro-7-methyl-6,7-dihydro-4H-3,4,7-triazadibenzo[cd,f]azulen-5-yl)-3,6-dihydropyridin-1(2H)-yl]-1-[(2S)-2-(hydroxymethyl)pyrrolidin-1-yl]ethanone]
160 | 1100 | CN1Cc2c(C3=CCCN(CC(=O)N4CC(O)C4)C3)[nH]c3nccc(c23)-c2cc(F)ccc21 [Example 121, 2-[5-(10-fluoro-7-methyl-6,7-dihydro-4H-3,4,7-triazadibenzo[cd,f]azulen-5-yl)-3,6-dihydropyridin-1(2H)-yl]-1-(3-hydroxyazetidin-1-yl)ethanone]
420 | 1400 | CN1Cc2c(C3=CCCN(CC(=O)N(C)C4CC(O)C4)C3)[nH]c3nccc(c23)-c2cc(F)ccc21 (stereo not drawn) [Example 122, 2-[5-(10-fluoro-7-methyl-6,7-dihydro-4H-3,4,7-triazadibenzo[cd,f]azulen-5-yl)-3,6-dihydropyridin-1(2H)-yl]-N-(3-hydroxycyclobutyl)-N-methylacetamide]
